Experimental data published in patent US20230365537A1, “POLO LIKE KINASE 4 INHIBITORS” (ORIC Pharmaceuticals, Inc., priority 2021, published 2023).

Columns and labels:
[1] = target: human recombinant PLK4 (Homo sapiens (Human), UniProt O00444); assay: PLK4 Biochemical Assay (ADP-Glo); conditions: 0.5 nM PLK4, 8.0 µM ATP, 4.7 µM MBP, 6 hours at RT
Procedure, shortened: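 Recombinant human PLK4 (added at 1.0 nM) was preincubated 15 min at RT with compound in 50 mM HEPES pH 7.5, 10 mM MgCl2, 1 mM EGTA, 1 mM DTT, 0.01% Brij-35, 0.01% BSA. ADP formed was detected by ADP-Glo luminescence (40 min ATP depletion, 30 min detection). IC50 came from a four-parameter fit.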

[2] = system: CHP-134 cells; assay: CHP134 CellTiter-Glo (CTG) Assay; type: cell-based; conditions: Homo sapiens, CHP-134, 120 h, 5 days, viable cells by CellTiter-Glo
Procedure, shortened: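 CHP-134 cells seeded at 200 cells/well for 16 h, then given nine 1:3 serial dilutions in quadruplicate at 37° C, 5% CO2. Viable cells measured by CellTiter-Glo luminescence after 5 days; IC50 calculated from curves.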

[3] = target: human recombinant Aurora A (Homo sapiens (Human), UniProt O14965); assay: Aurora A Kinase Biochemical Assay (ADP-Glo); conditions: ratio of Aurora A IC50 to PLK4 IC50 (selectivity)
[4] = target: human recombinant Aurora B (Homo sapiens (Human), UniProt Q96GD4); assay: Aurora B Kinase Biochemical Assay (ADP-Glo); conditions: ratio of Aurora B IC50 to PLK4 IC50 (selectivity)
Procedure, shortened: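 Recombinant human Aurora B (20 nM in pH 7.5 HEPES buffer with MgCl2, EGTA, DTT, Brij-35, BSA) preincubated with compound 15 min at RT. ADP formed quantified by ADP-Glo luminescence after ATP depletion (40 min) and detection (30 min). IC50 from four-parameter non-linear regression.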

Chain of human recombinant PLK4 (O00444 whole entry): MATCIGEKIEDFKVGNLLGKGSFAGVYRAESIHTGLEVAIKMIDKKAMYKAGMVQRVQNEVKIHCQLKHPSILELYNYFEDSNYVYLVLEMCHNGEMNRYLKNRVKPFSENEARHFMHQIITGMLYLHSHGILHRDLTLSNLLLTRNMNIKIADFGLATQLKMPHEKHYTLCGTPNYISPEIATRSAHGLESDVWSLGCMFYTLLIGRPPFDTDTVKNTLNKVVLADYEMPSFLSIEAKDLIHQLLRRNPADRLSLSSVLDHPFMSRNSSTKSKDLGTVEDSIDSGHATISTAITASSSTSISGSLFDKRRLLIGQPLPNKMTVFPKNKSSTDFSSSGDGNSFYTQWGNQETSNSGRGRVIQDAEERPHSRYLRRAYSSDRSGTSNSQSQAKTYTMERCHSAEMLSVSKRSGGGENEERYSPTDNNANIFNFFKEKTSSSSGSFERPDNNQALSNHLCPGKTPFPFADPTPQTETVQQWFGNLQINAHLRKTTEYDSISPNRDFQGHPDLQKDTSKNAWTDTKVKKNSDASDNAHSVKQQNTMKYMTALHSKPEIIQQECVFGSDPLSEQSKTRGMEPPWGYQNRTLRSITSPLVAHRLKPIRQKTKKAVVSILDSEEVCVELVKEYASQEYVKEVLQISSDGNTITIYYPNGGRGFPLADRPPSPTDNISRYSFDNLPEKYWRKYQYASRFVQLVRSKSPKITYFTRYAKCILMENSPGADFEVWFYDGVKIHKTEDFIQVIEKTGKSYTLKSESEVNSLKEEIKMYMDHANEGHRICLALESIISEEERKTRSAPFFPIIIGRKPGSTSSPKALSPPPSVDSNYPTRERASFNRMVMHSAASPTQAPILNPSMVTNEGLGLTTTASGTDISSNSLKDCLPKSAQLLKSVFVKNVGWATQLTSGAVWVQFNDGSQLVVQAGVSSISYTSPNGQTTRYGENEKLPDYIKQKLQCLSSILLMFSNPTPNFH
Chain of human recombinant Aurora B (Q96GD4 whole entry): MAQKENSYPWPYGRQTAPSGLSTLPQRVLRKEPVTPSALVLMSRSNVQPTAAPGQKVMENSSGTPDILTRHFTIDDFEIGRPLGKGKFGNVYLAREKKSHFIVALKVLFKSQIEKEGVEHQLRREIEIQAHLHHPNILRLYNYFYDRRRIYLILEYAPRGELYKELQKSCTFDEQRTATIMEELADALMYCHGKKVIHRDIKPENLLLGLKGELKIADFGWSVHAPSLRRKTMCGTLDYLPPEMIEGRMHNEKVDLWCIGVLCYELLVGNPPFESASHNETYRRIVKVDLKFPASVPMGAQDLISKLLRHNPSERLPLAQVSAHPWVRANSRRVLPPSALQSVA
Chain of human recombinant Aurora A (O14965 whole entry): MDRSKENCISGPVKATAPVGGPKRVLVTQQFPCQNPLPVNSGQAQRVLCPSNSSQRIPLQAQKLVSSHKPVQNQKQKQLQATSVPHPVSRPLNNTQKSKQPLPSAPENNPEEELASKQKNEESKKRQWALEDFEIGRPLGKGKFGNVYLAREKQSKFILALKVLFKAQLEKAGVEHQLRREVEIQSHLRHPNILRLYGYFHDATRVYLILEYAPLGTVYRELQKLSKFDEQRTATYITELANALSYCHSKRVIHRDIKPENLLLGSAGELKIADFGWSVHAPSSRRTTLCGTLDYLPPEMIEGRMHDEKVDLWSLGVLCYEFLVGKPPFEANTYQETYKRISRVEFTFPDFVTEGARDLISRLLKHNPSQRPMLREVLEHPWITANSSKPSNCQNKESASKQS

Row | SMILES | IC50 [1] | [Aurora A IC50 (nM)]/[PLK4 IC50 (nM)] [3] | [Aurora B IC50 (nM)]/[PLK4 IC50 (nM)] [4] | IC50 [2]
1 | COc1ccc2c(c1)[C@]1(C[C@H]1c1ccc3c(Nc4ncc(S(C)(=O)=O)cc4OC)n[nH]c3c1)C(=O)N2 [Example 193, (1R,2S)-2-(3-{[5-(methanesulfonyl)-3-methoxypyridin-2-yl]amino}-1H-indazol-6-yl)-5′-methoxyspiro[cyclopropane-1,3′-indol]-2′(1′H)-one] | 1.13 nM | 1463.8448 | 138.8889 | 390 nM
2 | COc1ccc2c(c1)[C@]1(C[C@H]1c1ccc3c(Nc4ccc(C(=O)N(C)C(C)C)nc4OC)n[nH]c3c1)C(=O)N2 [Example 194, 6-methoxy-5-({6-[(1R,2S)-5′-methoxy-2′-oxo-1’,2′-dihydrospiro[cyclopropane-1,3′-indol]-2-yl]-1H-indazol-3-yl}amino)-N-methyl-N-(propan-2-yl)pyridine-2-carboxamide] | 0.965 nM | 805.6995 | 103.7306 | 126 nM
3 | CCOc1cnc(SC)nc1Nc1n[nH]c2cc([C@@H]3C[C@@]34C(=O)Nc3ccc(OC)cc34)ccc12 [Example 195, (1R,2S)-2-(3-{[5-ethoxy-2-(methylsulfanyl)pyrimidin-4-yl]amino)-1H-indazol-6-yl)-5′-methoxyspiro[cyclopropane-1,3′-indol]-2′(1′H)-one] | 1.56 nM | 3459.6154 | 740.3846 | 160 nM
4 | COc1ccc2c(c1)[C@]1(C[C@H]1c1ccc3c(Nc4nc(S(C)(=O)=O)ccc4OC)n[nH]c3c1)C(=O)N2 [Example 196, (1R,2S)-2-(3-{[6-(methanesulfonyl)-3-methoxypyridin-2-yl]amino}-1H-indazol-6-yl)-5′-methoxyspiro[cyclopropane-1,3′-indol]-2′(1′H)-one] | 3.32 nM | 732.3689 | 100.8137 | 1670 nM
5 | COc1ccc2c(c1)[C@]1(C[C@H]1c1ccc3c(Nc4ncc(C(=O)N(C)C)cc4OC)n[nH]c3c1)C(=O)N2 [Example 197, 5-methoxy-6-({6-[(1R,2S)-5′-methoxy-2′-oxo-1′,2′-dihydrospiro[cyclopropane-1,3′-indol]-2-yl]-1H-indazol-3-yl}amino)-N,N-dimethylpyridine-3-carboxamide] | 1.08 nM | 1243.4944 | 73.8197 | 1080 nM
6 | COc1ccc2c(c1)[C@]1(C[C@H]1c1ccc3c(Nc4cc(C(=O)N(C)C)ncc4OC)n[nH]c3c1)C(=O)N2 [Example 198, 5-methoxy-4-({6-[(1R,2S)-5′-methoxy-2′-oxo-1′,2′-dibydrospiro[cyclopropane-1,3′-indol]-2-yl]-1H-indazol-3-yl}amino)-N,N-dimethylpyridine-2-carboxamide] | 8.69 nM | 5752.4160 | 5752.4160 | 10000 nM
7 | COc1ccc2c(c1)[C@]1(C[C@H]1c1ccc3c(Nc4ccc(C(=O)N5CCOCC5)cc4OC)n[nH]c3c1)C(=O)N2 [Example 199, (1R,2S)-5′-methoxy-2-{3-[2-methoxy-4-(morpholine-4-carbonyl)anilino]-1H-indazol-6-yl}spiro[cyclopropane-1,3′-indol]-2′(1′H)-one] | 0.716 nM | 439.9441 | 57.7095 | 108 nM
8 | CCOc1nc(S(C)(=O)=O)ccc1Nc1n[nH]c2cc([C@@H]3C[C@@]34C(=O)Nc3ccc(OC)cc34)ccc12 [Example 202, (1R,2S)-2-(3-{[2-ethoxy-6-(methanesulfonyl)pyridin-3-yl]amino}-1H-indazol-6-yl)-5′-methoxyspiro[cyclopropane-1,3′-indol]-2′(1′H)-one] | 2.68 nM | 1031.3433 | 321.4179 | 422 nM

The next lines start with results.

Row | IC50 [1] | [Aurora A IC50 (nM)]/[PLK4 IC50 (nM)] [3] | [Aurora B IC50 (nM)]/[PLK4 IC50 (nM)] [4] | SMILES | IC50 [2]
9 | 1.04 nM | 2922.2649 | 333.7812 | CCOc1cc(C(=O)N(C)C)cnc1Nc1n[nH]c2cc([C@@H]3C[C@@]34C(=O)Nc3ccc(OC)cc34)ccc12 [Example 203, 5-ethoxy-6-({6-[(1R,2S)-5′-methoxy-2′-oxo-1’,2′-dihydrospiro[cyclopropane-1,3′-indol]-2-yl]-1H-indazol-3-yl}amino)-N,N-dimethylpyridine-3-carboxamide] | 324 nM
10 | 0.81 nM | 342.9630 | 222.8395 | COc1ccc2c(c1)[C@]1(C[C@H]1c1ccc3c(Nc4ncc(S(=O)(=O)N(C)C)cc4OC)n[nH]c3c1)C(=O)N2 [Example 204, 5-methoxy-6-({6-[(1R,2S)-5′-methoxy-2′-oxo-1’,2′-dihydrospiro[cyclopropane-1,3′-indol]-2-yl]-1H-indazol-3-yl}amino)-N,N-dimethylpyridine-3-sulfonamide] | 122 nM
11 | 1.64 nM | 737.5152 | 235.7491 | COc1ccc2c(c1)[C@]1(C[C@H]1c1ccc3c(Nc4ccc(P(C)(C)=O)nc4OC)n[nH]c3c1)C(=O)N2 [Example 205, (1R,2S)-2-(3-{[6-(dimethylphosphoryl)-2-methoxypyridin-3-yl]amino}-1H-indazol-6-yl)-5′-methoxyspiro[cyclopropane-1,3′-indol]-2′(1′H)-one] | 3440 nM
12 | 0.897 nM | 7904 | 2471 | CCOc1cc(S(C)(=O)=O)cnc1Nc1n[nH]c2cc([C@@H]3C[C@@]34C(=O)Nc3ccc(OC)cc34)ccc12 [Example 208, (1R,2S)-2-(3-{[3-ethoxy-5-(methanesulfonyl)pyridin-2-yl]amino}-1H-indazol-6-yl)-5′-methoxyspiro[cyclopropano-1,3′-indol]-2′(1′H)-one] | 402 nM
13 | 1.54 nM | 273.2595 | 254.6519 | CCS(=O)(=O)c1ccc(Nc2n[nH]c3cc([C@@H]4C[C@@]45C(=O)Nc4ccc(OC)cc45)ccc23)c(OC)n1 [Example 209, (1R,2S)-2-(3-{[6-(ethanesulfonyl)-2-methoxypyridin-3-yl]amino}-1H-indazol-6-yl)-5′-methoxyspiro[cyclopropane-1,3′-indol]-2′(1′H)-one] | 606 nM
14 | 1.35 nM | 462.3887 | 316.5430 | CNS(=O)(=O)c1cc(OC)c(Nc2n[nH]c3cc([C@@H]4C[C@@]45C(=O)Nc4ccc(OC)cc45)ccc23)cc1C [Example 210, 5-methoxy-4-({6-[(1R,2S)-5′-methoxy-2′-oxo-1′,2′-dihydrospiro[cyclopropane-1,3′-indol]-2-yl]-1H-indazol-3-yl}amino)-N,2-dimethylbenzene-1-sulfonamide] | 65.5 nM
15 | 1.58 nM | 353.1230 | 280 | COc1ccc2c(c1)[C@]1(C[C@H]1c1ccc3c(Nc4cc(OC)c(S(N)(=O)=O)cc4OC)n[nH]c3c1)C(=O)N2 [Example 212, 2,5-Dimethoxy-4-({6-[(1R,2S)-5′-methoxy-2′-oxo-l′,2′-dihydrospiro[cyclopropane-1,3′-indol]-2-yl]-1H-indazol-3-yl}amino)benzene-1-sulfonamide] | 161 nM
16 | 2.13 nM | 92.2102 | 225.3871 | COc1ccc2c(c1)[C@]1(C[C@H]1c1ccc3c(Nc4nc(N(C)C)nc5c4CCC5)n[nH]c3c1)C(=O)N2 [Example 213, (1R,2S)-2-(3-{[2-(dimethylamino)-6,7-dihydro-5H-cyclopenta[d]pyrimidin-4-yl]amino}-1H-indazol-6-yl)-5′-methoxyspiro[cyclopropane-1,3′-indol]-2′(1′H)-one] | 190 nM
17 | 1.01 nM | 953 | 59.0999 | CCOc1nc(C(=O)N(C)C)ccc1Nc1n[nH]c2cc([C@@H]3C[C@@]34C(=O)Nc3ccc(OC)cc34)ccc12 [Example 214, 6-ethoxy-5-({6-[(1R,2S)-5′-methoxy-2′-oxo-1′,2′-dihydrospiro[cyclopropane-1,3′-indol]-1-yl]-1H-indazol-3-yl}amino)-N,N-dimethylpyridine-2-carboxamide] | 32.2 nM
18 | 2.1 nM | 986.6539 | 53.57 | COc1ccc2c(c1)[C@]1(C[C@H]1c1ccc3c(Nc4ccc(N5CCCC5=O)nc4OC)n[nH]c3c1)C(=O)N2 [Example 215, (1R,2S)-5′-methoxy-2-(3-{[2-methoxy-6-(2-oxopyrrolidin-1-yl)pyridin-3-yl]amino}-1H-indazol-6-yl)spiro[cyclopropane-1,3′-indol]-2′(1′H)-one] | 192 nM
